Where “and” joins values, the source holds several entries; their conditions need not be identical. Equal values may be shown once. Calls of active or inactive are those of the source. No rule for the calls is given here.
target: Peptidyl-prolyl cis-trans isomerase FKBP1A (Homo sapiens) (UniProt P62942); assay: small-molecule binding to FKBP12 – biophysical, NMR detection (AID 608); settings: purified FKBP12
Sequence (P62942 whole entry, looked up): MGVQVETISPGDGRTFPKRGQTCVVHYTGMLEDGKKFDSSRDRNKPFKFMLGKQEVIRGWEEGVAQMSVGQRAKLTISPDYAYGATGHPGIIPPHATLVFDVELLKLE

Compound | Kd
CC(=O)Oc1cccc2ccc(=O)[nH]c12 | > 4 mM (inactive)
OC12CC3CC(CC(C3)C1)C2 | > 4 mM (inactive)
Cc1cc(C)n(C2CCS(=O)(=O)C2)n1 (centres undefined) | > 4 mM (inactive)
Cc1sc(N)c(C(N)=O)c1C | > 4 mM (inactive)
Nc1nc(-c2cccnc2)nn1C(=O)Cc1ccccc1 | > 4 mM (inactive)
O=C(O)c1csc2ccccc12 | > 4 mM (inactive)
Cn1c(CNc2ccccc2)cc(=O)n(C)c1=O | > 4 mM (inactive)
CNc1nc(C)nc(-n2nc(C)cc2C)n1 | > 4 mM (inactive)
CCNC(CC(=O)Nc1cccc([N+](=O)[O-])c1)C(=O)O (centres undefined) | > 4 mM (inactive)
O=C(OCc1c(F)cccc1Cl)c1cnccn1 | > 4 mM (inactive)
O=C(CSc1ccc(Cl)cc1)N1CCOCC1 | 0.014 mM and 0.019 mM
O=C(Nc1ccc(F)cc1F)c1ccco1 | > 4 mM (inactive)
CC(C)[C@@H]1CC[C@@H](C)C[C@H]1O | > 4 mM (inactive)
COc1ccc(/C=N/n2cn[nH]c2=S)cc1 | > 4 mM (inactive)
O=C1N=c2ccccc2=C1c1sc(=S)[nH]c1O | > 4 mM (inactive)
Cc1ccccc1-n1c(-c2cccnc2)n[nH]c1=S | > 4 mM (inactive)
O=C(O)CCn1cncn1 | > 4 mM (inactive)
C[C@@H]1CC[C@@]23CCC4(C)[C@@](C=CC5[C@@]6(C)CC[C@H](O)C(C)(C)C6CC[C@]54C)(OC2=O)C3[C@H]1C (some centres undefined) | > 4 mM (inactive)
O=C(CSc1ncn[nH]1)c1ccc2c(c1)OCCO2 | > 4 mM (inactive)
OCC1COc2ccccc2O1 (centres undefined) | > 4 mM (inactive)
Nc1nc2ncc(CNc3ccc(C(=O)N[C@@H](CCC(=O)O)C(=O)O)cc3)nc2c(=O)[nH]1 | > 4 mM (inactive)
CCOc1ccc(C(=O)c2ccc(OC)c(O)c2O)cc1 | > 4 mM (inactive)
O=C(c1ccccc1)c1cncc(Br)c1 | > 4 mM (inactive)
COc1cc2c(c(OC)c1OC)-c1ccc(OC)c(=O)cc1[C@@H](NC(C)=O)CC2 | > 4 mM (inactive)

Compound | Kd
O=S1(=O)CCC(NC(=S)Nc2ccccn2)C1 (centres undefined) | > 4 mM (inactive)
CN(C)S(=O)(=O)NCc1ccc2c(c1)OCO2 | > 4 mM (inactive)
CN(c1ccc(C(=O)N2CCCCC2)cc1)S(C)(=O)=O | > 4 mM (inactive)
O=c1ccn(Cc2ccccc2)c(=O)[nH]1 | > 4 mM (inactive)
CC(=O)c1c(O)cc(C)n(Cc2ccccc2)c1=O | > 4 mM (inactive)
Cc1cc(C)cc(OC(=O)N2CCOCC2)c1 | > 4 mM (inactive)
CN(C)CCCN1CNC(=S)NC1 | > 4 mM (inactive)
COCC(=O)OCn1nnc2ccccc2c1=O | > 4 mM (inactive)
O=C(O)CCCC(=O)Nc1nccs1 | > 4 mM (inactive)
c1ccc(-n2nnnc2Oc2cccc3cccnc23)cc1 | > 4 mM (inactive)
CCOC(=O)CNC(=O)CSc1nnc(C)c(=O)[nH]1 | > 4 mM (inactive)
CCOc1ccc(N2C(=O)CCC2=O)cc1 | > 4 mM (inactive)
O=C(O)[C@H](O)[C@@](O)(Cc1ccc(O)cc1)C(=O)O | > 4 mM (inactive)
OCC1Cc2ccccc2N1 (centres undefined) | > 4 mM (inactive)
NC1=NC(=O)/C(=C/c2cccs2)S1 | > 4 mM (inactive)
Cc1nn2c(-c3ccco3)nnc2c2ccccc12 | > 4 mM (inactive)
c1ccc(-c2noc(-c3ccc4c(c3)OCO4)n2)nc1 | > 4 mM (inactive)
COc1nc(-c2ccccc2)ccc1-c1noc(C)n1 | > 4 mM (inactive)
CCOC(=O)c1c(C)cc(O)cc1O | > 4 mM (inactive)
Cc1cc(C(=O)Nn2cnnc2)cs1 | > 4 mM (inactive)
O=C(O)c1cc(=O)[nH]c2ccccc12 | > 4 mM (inactive)
CCNS(=O)(=O)c1cc(Br)ccc1OC | > 4 mM (inactive)
Cc1nc(-c2cc(C(=O)O)no2)cs1 | > 4 mM (inactive)
Cc1cc(Oc2ccccc2)nc(N)n1 | > 4 mM (inactive)

Compound | Kd
O=C(O)c1cccc2c1OCC2 | > 4 mM (inactive)
COc1cccc(S(=O)(=O)Nc2cccnc2)c1 | > 4 mM (inactive)
O=C(O)Cc1c[nH]c2ccccc12 | > 4 mM (inactive)
C[C@H]1C(=O)CCC2[C@]3(C)CC[C@@]4(C)C5CC(C)(C)CC[C@]5(C)CC[C@]4(C)C3CC[C@@]21C (some centres undefined) | > 4 mM (inactive)
OCC1CCN(Cc2ccccc2)CC1 | > 4 mM (inactive)
CCc1c(C)n([O-])c2c([n+]1=O)CCC2 | > 4 mM (inactive)
Nc1nc(O)c(C2=c3cc(Cl)ccc3=NC2=O)s1 | > 4 mM (inactive)
O=C1CCN(c2ccccc2)N1 | > 4 mM (inactive)
OCc1ccc2nonc2c1 | > 4 mM (inactive)
CS(=O)(=O)c1nncn1-c1ccccc1 | > 4 mM (inactive)
Nc1nc(-c2ccc(Cl)cc2)nn1C(=O)c1cccnc1 | > 4 mM (inactive)
CCCSc1nnc2[nH]c(=O)cc(N)n12 | > 4 mM (inactive)
O=C(Nc1ccon1)c1cccc(C(F)(F)F)c1 | > 4 mM (inactive)
Nc1cc(=O)[nH]c(=O)n1-c1ccccc1 | > 4 mM (inactive)
O=C1NC(=Nc2ccccc2Cl)SC1(CO)CO | > 4 mM (inactive)
CC(=O)OC1CC[C@@]2(C)C(CCC3C2CC[C@]2(C)C(C4=CC(=O)OC4)C(OC(C)=O)CC32O)C1 (some centres undefined) | > 4 mM (inactive)
O=C(/C(=N\O)n1cncn1)c1ccccc1Cl | > 4 mM (inactive)
Cc1ccc2[nH]c3nc(=S)[nH]nc3c2c1 | > 4 mM (inactive)
NCCCCN=C(N)N | > 4 mM (inactive)
CC(C)C1COc2cc3oc(=O)ccc3cc2O1 (centres undefined) | > 4 mM (inactive)
COC(=O)[C@]1(C)CC[C@]2(C)CC[C@]3(C)C4=CCc5c(cc(O)c(O)c5C)[C@]4(C)CC[C@@]3(C)C2C1 (some centres undefined) | > 4 mM (inactive)
Cn1c(SCC(=O)NCCO)nc2ccccc2c1=O | > 4 mM (inactive)
CC(=O)Nc1nnc(-c2ccccn2)o1 | > 4 mM (inactive)
Nc1ccc(CCC(=O)O)cc1 | > 4 mM (inactive)

Compound | Kd
COC(=O)C(O)c1ccccc1 (centres undefined) | > 4 mM (inactive)
O=C(Cc1c(F)cccc1Cl)Nc1cccnc1 | > 4 mM (inactive)
Cn1c(C(=O)O)ccc1S(N)(=O)=O | > 4 mM (inactive)
COc1cc(C(C)=O)ccc1OCC(O)Cn1ccnc1 (centres undefined) | > 4 mM (inactive)
Cn1c(NCc2ccccc2O)nc2ccccc21 | > 4 mM (inactive)
Cc1cc(=O)c2c(O)cc(O)c(C)c2o1 | > 4 mM (inactive)
Cc1cccc(N2C(=O)CCC2=O)n1 | > 4 mM (inactive)
Cc1cc(C)n(/N=C\c2cccs2)c(=O)c1C(N)=O | > 4 mM (inactive)
OC[C@H]1O[C@@H](n2cnc3c(NCc4ccco4)ncnc32)[C@H](O)[C@@H]1O | > 4 mM (inactive)
O=C1CNC(=O)N1Cc1ccc(Br)cc1 | > 4 mM (inactive)
Nn1cnn2c(SCc3ccccc3)nnc12 | > 4 mM (inactive)
CC(=O)O[C@H]1CCC2(C)C3=C(CCC2C1(C)C)[C@@]1(C)CC[C@@H](C(C)CCC=C(C)C)[C@]1(C)CC3 (some centres undefined) | > 4 mM (inactive)
Oc1ccccc1N=Cc1cccnc1 | > 4 mM (inactive)
O=C(O)CNc1ncnc2nc[nH]c12 | > 4 mM (inactive)
Nc1nncn1C(=O)c1c(Cl)cccc1Cl | > 4 mM (inactive)
c1ccc2c(NC3=NCCS3)cccc2c1 | > 4 mM (inactive)
CC(=O)Oc1ccc2c(c1)c(C(C)=O)c(C)n2C | > 4 mM (inactive)
Nc1nnc(Cc2ccc(Cl)cc2)s1 | > 4 mM (inactive)
Cc1ccc2cc(CO)ccc2n1 | > 4 mM (inactive)
Cc1c(-c2ccccc2)[n+](=O)c(-c2ccco2)c(C)n1[O-] | > 4 mM (inactive)
COc1cc(O)c2c(=O)cc(-c3ccc(OC)c(-c4c(O)cc(O)c5c(=O)cc(-c6ccc(O)cc6)oc45)c3)oc2c1 | > 4 mM (inactive)
CSc1n[nH]c(NCc2ccccc2)n1 | > 4 mM (inactive)
OCc1ccc2c(c1)CCO2 | > 4 mM (inactive)
CC(=O)Nc1cc(N2C(=O)C=CC2=O)ccc1Cl | > 4 mM (inactive)

Compound | Kd
Cc1ncoc1C(=O)Nc1ccccc1C(N)=O | > 4 mM (inactive)
Cc1ccc(Nc2nc(N)nc(CC#N)n2)cc1 | > 4 mM (inactive)
Cc1cccc(NC(=O)CN2C(=O)CNC2=O)c1 | > 4 mM (inactive)
Cc1occc1C(=O)NCc1ccncc1 | > 4 mM (inactive)
CC1=NN2C(=N)/C(=C\c3cccs3)C(=O)N=C2S1 | > 4 mM (inactive)
CNC(=O)c1cc(S(=O)(=O)N(C)C)ccc1Cl | > 4 mM (inactive)
NC(=O)C1CCN(C2CC(=O)NC2=O)CC1 (centres undefined) | > 4 mM (inactive)
CC(=O)Oc1ccc(-c2cc(=O)c3c(OC(C)=O)cc(OC(C)=O)cc3o2)cc1 | > 4 mM (inactive)
Cc1ccc(NC(=O)/C=C2\SC(=O)NC2=O)cc1 | > 4 mM (inactive)
O=S(=O)(N1CCOCC1)n1c(Cc2ccccc2)nc2ccccc21 | inactive
COc1ccccc1NC(=O)c1ccc(C)s1 | > 4 mM (inactive)
Nc1oncc1-c1ccccn1 | > 4 mM (inactive)
Cc1cc(NC(=O)CS(=O)(=O)c2ccccc2)no1 | > 4 mM (inactive)
CCN1CCC2(CC1)CC1CC3C=CC1(CN2C(C)=O)O3 (centres undefined) | > 4 mM (inactive)
Cc1ccc(C(=O)CS(C)(=O)=O)cc1 | > 4 mM (inactive)
O=C(O)CCC(=O)c1cccc2ccccc12 | > 4 mM (inactive)
CC1(C)CCC(C)(C)c2cc(C(=O)O)ccc21 | > 4 mM (inactive)
Cc1nc(SCC#N)c2c(C)c(C)sc2n1 | > 4 mM (inactive)
COc1ccc(NC(=O)CCCC(=O)O)c(OC)c1 | > 4 mM (inactive)
C=C1C2CC[C@@]3(C)[C@H](c4ccoc4)OC(=O)C[C@]13O[C@H]1CC(O)C(C)(C)C(CC(=O)OC)[C@@]21C (some centres undefined) | > 4 mM (inactive)
CCOC(=O)c1c(C)cc(O)c(C)c1O | > 4 mM (inactive)
Cc1nn(C)c(Cl)c1S(=O)(=O)N1CCOCC1 | > 4 mM (inactive)
CC(=O)O[C@@H]1CC2C(C)(C)C(=O)C3OC3[C@]2(C)C2CC[C@@]3(C)[C@H](c4ccoc4)OC(=O)C4OC43[C@@]21C (some centres undefined) | > 4 mM (inactive)

Reference: PubChem BioAssay AID608 (Sanford-Burnham Center for Chemical Genomics, 2007)
